Reference: patent publication US20240252488A1 (KOREA RESEARCH INSTITUTE OF CHEMICAL TECHNOLOGY, priority 2020, published 2024)

Tests used:
FADD−/− Jurkat cells = experiment: Necroptosis inhibition assay, TNF-α-induced necroptosis (CellTiter-Glo 2.0); type: cell-based, human; conditions: TNF-α 15 ng/mL, FADD−/− Jurkat cells; for Necroptosis inhibition assay (Rescue %) 1 μM: compound 1 μM; for Necroptosis inhibition assay (Rescue %) 10 μM: compound 10 μM
Outline: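 Necroptosis induced by 15 ng/mL TNF-α (final) for 20–24 h at 37 °C, after a 30 min room-temperature pretreatment of FADD-deficient Jurkat cells with 0.1, 1 or 10 μM compound. ATP-based luminescence gave viability, from which inhibition rate and cytotoxicity were derived.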

MLKL [1] = target: T1, MLKL (Homo sapiens, UniProt Q8NB16); experiment: Measurement of binding affinity with MLKL receptor (competitive binding assay, Kd); parameters: made in house; host or cells: HEK 293 cell line (T7 phage in E. coli BL21-derived host is also described)
T1 sequence (Q8NB16 1-471): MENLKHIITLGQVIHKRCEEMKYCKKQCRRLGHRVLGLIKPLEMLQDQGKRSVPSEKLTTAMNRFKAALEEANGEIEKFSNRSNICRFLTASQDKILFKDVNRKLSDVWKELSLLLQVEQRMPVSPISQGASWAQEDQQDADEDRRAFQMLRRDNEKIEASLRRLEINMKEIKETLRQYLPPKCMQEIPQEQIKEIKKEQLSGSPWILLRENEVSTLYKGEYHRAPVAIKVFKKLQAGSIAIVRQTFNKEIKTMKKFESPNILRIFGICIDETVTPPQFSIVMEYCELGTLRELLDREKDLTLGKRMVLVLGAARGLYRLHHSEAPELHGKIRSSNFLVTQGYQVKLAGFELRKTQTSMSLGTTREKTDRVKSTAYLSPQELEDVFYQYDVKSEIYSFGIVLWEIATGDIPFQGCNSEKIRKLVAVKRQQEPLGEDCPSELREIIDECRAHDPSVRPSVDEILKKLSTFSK
Outline: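 Competition binding of kinase tagged with DNA for qPCR detection, expressed in HEK 293 cells, against immobilized ligand on beads. Final DMSO 0.9%. Kd derived from kinase amount in eluates measured by qPCR.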

MLKL [2] = target: T1, MLKL; experiment: MLKL degradation assay in HepG2 cell line (western blot); type: cell-based; parameters: endogenous in cells; host or cells: HepG2 or HaCaT; conditions: cell line not given; for Degradation assay (Degradation %) 1 μM: compound 1 μM; for Degradation assay (Degradation %) 10 μM: compound 10 μM
Outline: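 Western blot chemiluminescence of MLKL in equal-protein lysates (10-15 μg, BCA-adjusted). Before lysis, HepG2 cells were exposed to 1 or 10 μM (final) test compound for 20-24 h at 37 °C.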

SMILES	Kd (MLKL [1]) [nM]	Degradation assay (Degradation %) 1 μM (MLKL [2]) [%]	Degradation assay (Degradation %) 10 μM (MLKL [2]) [%]	Necroptosis inhibition assay (Rescue %) 1 μM (FADD−/− Jurkat cells) [%]	Necroptosis inhibition assay (Rescue %) 10 μM (FADD−/− Jurkat cells) [%]
Nc1ncc(-c2cnn(C3CCN(CCCN4CC5CN(C(=O)CCc6ccc7c(c6)C(=O)N(C6CCC(=O)NC6=O)C7=O)CC5C4)CC3)c2)nc1C(=O)O[C@@H](C(=O)Nc1ccc(F)cc1)c1ccccc1 (stereo partly drawn) [TDH-480, (R)-2-((4-fluorophenyl)amino)-2-oxo-1-phenylethyl 3-amino-6-(1-(1-(3-(5-(3-(2-(2,6-dioxopiperidin-3-yl)-1,3-dioxoisoindolin-5-yl)propanoyl)hexahydropyrrolo[3,4-c]pyrrol-2(1H)-yl)propyl)piperidin-4-yl)-1H-pyrazol-4-yl)pyrazine-2-carboxylate]	0.48	46.42	73	35.76	39.78
Nc1ncc(-c2cnn(C3CCN(CCCC4CCN(c5ccc6c(c5)C(=O)N(C5CCC(=O)NC5=O)C6=O)CC4)CC3)c2)nc1C(=O)O[C@@H](C(=O)Nc1ccc(F)cc1)c1ccccc1 (stereo partly drawn) [TDH-481, (R)-2-((4-fluorophenyl)amino)-2-oxo-1-phenylethyl 3-amino-6-(1-(1-(3-(1-(2-(2,6-dioxopiperidin-3-yl)-1,3-dioxoisoindolin-5-yl)piperidin-4-yl)propyl)piperidin-4-yl)-1H-pyrazol-4-yl)pyrazine-2-carboxylate]	8.8	74.5	63.36	17.64	9.86
Nc1ncc(-c2cnn(C3CCN(CCCC4CCN(C(=O)COc5ccc6c(c5)C(=O)N(C5CCC(=O)NC5=O)C6=O)CC4)CC3)c2)nc1C(=O)O[C@@H](C(=O)Nc1ccc(F)cc1)c1ccccc1 (stereo partly drawn) [TDH-482, (R)-2-((4-fluorophenyl)amino)-2-oxo-1-phenylethyl 3-amino-6-(1-(1-(3-(1-(2-((2-(2,6-dioxopiperidin-3-yl)-1,3-dioxoisoindolin-5-yl)oxy)acetyl)piperidin-4-yl)propyl)piperidin-4-yl)-1H-pyrazol-4-yl)pyrazine-2-carboxylate]	1.2	91.19	88.98	78.94	42.16
Nc1ncc(-c2cnn(C3CCN(CCCC4CCN(C(=O)CNc5ccc6c(c5)C(=O)N(C5CCC(=O)NC5=O)C6=O)CC4)CC3)c2)nc1C(=O)O[C@@H](C(=O)Nc1ccc(F)cc1)c1ccccc1 (stereo partly drawn) [TDH-483, (R)-2-((4-fluorophenyl)amino)-2-oxo-1-phenylethyl 3-amino-6-(1-(1-(3-(1-((2-(2,6-dioxopiperidin-3-yl)-1,3-dioxoisoindolin-5-yl)glycyl)piperidin-4-yl)propyl)piperidin-4-yl)-1H-pyrazol-4-yl)pyrazine-2-carboxylate]	2.5	86.34	84.54	62.95	37.9
Nc1ncc(-c2cnn(C3CCN(CCCC4CCN(C(=O)CCc5ccc6c(c5)C(=O)N(C5CCC(=O)NC5=O)C6=O)CC4)CC3)c2)nc1C(=O)O[C@@H](C(=O)Nc1ccc(F)cc1)c1ccccc1 (stereo partly drawn) [TDH-484, (R)-2-((4-fluorophenyl)amino)-2-oxo-1-phenylethyl 3-amino-6-(1-(1-(3-(1-(3-(2-(2,6-dioxopiperidin-3-yl)-1,3-dioxoisoindolin-5-yl)propanoyl)piperidin-4-yl)propyl)piperidin-4-yl)-1H-pyrazol-4-yl)pyrazine-2-carboxylate]	0.92	89.17	91.3	66.68	37.9
Nc1ncc(-c2cnn(C3CCN(CCCN4CCN(C(=O)COc5ccc6c(c5)C(=O)N(C5CCC(=O)NC5=O)C6=O)CC4)CC3)c2)nc1C(=O)O[C@@H](C(=O)Nc1cccc(Cl)c1)c1ccccc1 (stereo partly drawn) [TDH-485, (R)-2-((3-chlorophenyl)amino)-2-oxo-1-phenylethyl 3-amino-6-(1-(1-(3-(4-(2-((2-(2,6-dioxopiperidin-3-yl)-1,3-dioxoisoindolin-5-yl)oxy)acetyl)piperazin-1-yl)propyl)piperidin-4-yl)-1H-pyrazol-4-yl)pyrazine-2-carboxylate]	10	87.46	93.6	61.51	50.03
COc1cccc(NC(=O)[C@H](OC(=O)c2nc(-c3cnn(C4CCN(CCCN5CCN(C(=O)COc6ccc7c(c6)C(=O)N(C6CCC(=O)NC6=O)C7=O)CC5)CC4)c3)cnc2N)c2ccccc2)c1 (stereo partly drawn) [TDH-486, (R)-2-((3-methoxyphenyl)amino)-2-oxo-1-phenylethyl 3-amino-6-(1-(1-(3-(4-(2-((2-(2,6-dioxopiperidin-3-yl)-1,3-dioxoisoindolin-5-yl)oxy)acetyl)piperazin-1-yl)propyl)piperidin-4-yl)-1H-pyrazol-4-yl)pyrazine-2-carboxylate]	2.5	85.37	88.15	77.72	34.5

Continued, in another order:

Kd (MLKL [1]) [nM]	Degradation assay (Degradation %) 1 μM (MLKL [2]) [%]	Degradation assay (Degradation %) 10 μM (MLKL [2]) [%]	SMILES	Necroptosis inhibition assay (Rescue %) 1 μM (FADD−/− Jurkat cells) [%]	Necroptosis inhibition assay (Rescue %) 10 μM (FADD−/− Jurkat cells) [%]
4.3	77.25	89.93	Cc1cccc(NC(=O)[C@H](OC(=O)c2nc(-c3cnn(C4CCN(CCCN5CCN(C(=O)COc6ccc7c(c6)C(=O)N(C6CCC(=O)NC6=O)C7=O)CC5)CC4)c3)cnc2N)c2ccccc2)c1 (stereo partly drawn) [TDH-487, (R)-2-oxo-1-phenyl-2-(m-tolylamino)ethyl 3-amino-6-(1-(1-(3-(4-(2-((2-(2,6-dioxopiperidin-3-yl)-1,3-dioxoisoindolin-5-yl)oxy)acetyl)piperazin-1-yl)propyl)piperidin-4-yl)-1H-pyrazol-4-yl)pyrazine-2-carboxylate]	59.49	58.14
78	19.04	14.39	Nc1ncc(-c2cnn(C3CCN(CCCN4CCN(c5ccc6c(c5)C(=O)N(C5CCC(=O)NC5=O)C6=O)CC4)CC3)c2)nc1C(=O)N[C@@H](C(=O)Nc1ccc(F)cc1)c1ccccc1 (stereo partly drawn) [TDH-491, 3-amino-6-(1-(1-(3-(4-(2-(2,6-dioxopiperidin-3-yl)-1,3-dioxoisoindolin-5-yl)piperazin-1-yl)propyl)piperidin-4-yl)-1H-pyrazol-4-yl)-N-((R)-2-((4-fluorophenyl)amino)-2-oxo-1-phenylethyl)pyrazine-2-carboxamide]	0.07	−24.78
39	13.74	14.89	Nc1ncc(-c2cnn(C3CCN(CCCN4CCN(C(=O)COc5ccc6c(c5)C(=O)N(C5CCC(=O)NC5=O)C6=O)CC4)CC3)c2)nc1C(=O)N[C@@H](C(=O)Nc1ccc(F)cc1)c1ccccc1 (stereo partly drawn) [TDH-492, 3-amino-6-(1-(1-(3-(4-(2-((2-(2,6-dioxopiperidin-3-yl)-1,3-dioxoisoindolin-5-yl)oxy)acetyl)piperazin-1-yl)propyl)piperidin-4-yl)-1H-pyrazol-4-yl)-N-((R)-2-((4-fluorophenyl)amino)-2-oxo-1-phenylethyl)pyrazine-2-carboxamide]	10.33	4.12
0.98	80.66	88.82	Nc1ncc(-c2cnn(C3CCN(CCCN4CCN(C(=O)COc5ccc6c(c5)C(=O)N(C5CCC(=O)NC5=O)C6=O)CC4)CC3)c2)nc1C(=O)O[C@@H](C(=O)Nc1ccc(F)cc1)c1ccccc1Cl (stereo partly drawn) [TDH-494, (R)-1-(2-chlorophenyl)-2-((4-fluorophenyl)amino)-2-oxoethyl 3-amino-6-(1-(1-(3-(4-(2-((2-(2,6-dioxopiperidin-3-yl)-1,3-dioxoisoindolin-5-yl)oxy)acetyl)piperazin-1-yl)propyl)piperidin-4-yl)-1H-pyrazol-4-yl)pyrazine-2-carboxylate]	43.07	−7.06
